Measurements published in the supplement of paper PMC10307832.

Tests used:
Test in all cases: relative viability (nuclei count vs DMSO), 5 days (fraction); higher = more cells survive
[1] = tested on: ChaGo-K-1
Summary of the method: (§1)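 The day after seeding in 1536-well plates, lung cancer cell lines were treated by pin tool with a single drug, or with a fixed anchor-drug dose together with five library-drug doses (not always all listed) in √10 steps. After 5 days, a combined fix-and-stain solution (final 0.05% Triton X-100, 1% formaldehyde, 1 ug/ml Hoechst) was added. Nuclei counted on 4× images gave relative viability as treated counts over vehicle counts, reported as the median of duplicate plates.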

[2] = tested on: EMC-BAC-2
Summary of the method: as §1

[3] = tested on: EPLC-272H
Summary of the method: as §1

[4] = tested on: HCC-44
Summary of the method: as §1

[5] = tested on: HOP-62
Summary of the method: as §1

[6] = tested on: LCLC-103H
Summary of the method: as §1

[7] = tested on: LCLC-97TM1
Summary of the method: as §1

[8] = tested on: LOU-NH91
Summary of the method: as §1

[9] = tested on: NCI-H1395
Summary of the method: as §1

[10] = tested on: NCI-H1975
Summary of the method: as §1

[11] = tested on: NCI-H1993
Summary of the method: as §1

[12] = tested on: NCI-H2085
Summary of the method: as §1

[13] = tested on: NCI-H2126
Summary of the method: as §1

[14] = tested on: NCI-H2170
Summary of the method: as §1

[15] = tested on: NCI-H2228
Summary of the method: as §1

[16] = tested on: NCI-H2342
Summary of the method: as §1

[17] = tested on: NCI-H2405
Summary of the method: as §1

[18] = tested on: NCI-H3122
Summary of the method: as §1

[19] = tested on: NCI-H322M
Summary of the method: as §1

[20] = tested on: NCI-H460
Summary of the method: as §1

[21] = tested on: NCI-H520
Summary of the method: as §1

[22] = tested on: NCI-H647
Summary of the method: as §1

[23] = tested on: SK-LU-1
Summary of the method: as §1

SMILES: Oc1nc(-c2ccc(C(F)(F)F)cc2)nc2c1CSCC2 [XAV939] + O=C(CCCCCCC(=O)Nc1ccccc1)NO [Vorinostat] (partner 1 µM)
- relative viability ([1]; first compound 0.08 µM): 0.751
- relative viability ([1]; first compound 0.253 µM): 0.707
- relative viability ([1]; first compound 0.8 µM): 0.747
- relative viability ([1]; first compound 2.53 µM): 0.643
- relative viability ([2]; first compound 0.08 µM): 0.175
- relative viability ([2]; first compound 0.253 µM): 0.447
- relative viability ([2]; first compound 0.8 µM): 0.379
- relative viability ([2]; first compound 2.53 µM): 0.289
- relative viability ([3]; first compound 0.08 µM): 0.369
- relative viability ([3]; first compound 0.253 µM): 0.339
- relative viability ([3]; first compound 0.8 µM): 0.746
- relative viability ([3]; first compound 2.53 µM): 0.324
- relative viability ([4]; first compound 0.08 µM): 0.981
- relative viability ([4]; first compound 0.253 µM): 0.919
- relative viability ([4]; first compound 0.8 µM): 0.947
- relative viability ([4]; first compound 2.53 µM): 1.04
- relative viability ([5]; first compound 0.08 µM): 0.888
- relative viability ([5]; first compound 0.253 µM): 0.525
- relative viability ([5]; first compound 0.8 µM): 0.501
- relative viability ([5]; first compound 2.53 µM): 0.311
- relative viability ([6]; first compound 0.08 µM): 0.874
- relative viability ([6]; first compound 0.253 µM): 0.698
- relative viability ([6]; first compound 0.8 µM): 0.805
- relative viability ([6]; first compound 2.53 µM): 0.618
- relative viability ([7]; first compound 0.08 µM): 1.05
- relative viability ([7]; first compound 0.253 µM): 0.686
- relative viability ([7]; first compound 2.53 µM): 0.449
- relative viability ([8]; first compound 0.08 µM): 0.952
- relative viability ([8]; first compound 0.253 µM): 0.813
- relative viability ([8]; first compound 0.8 µM): 0.88
- relative viability ([8]; first compound 2.53 µM): 0.937
- relative viability ([9]; first compound 0.08 µM): 0.746
- relative viability ([9]; first compound 0.253 µM): 0.774
- relative viability ([9]; first compound 0.8 µM): 0.725
- relative viability ([9]; first compound 2.53 µM): 0.849
- relative viability ([10]; first compound 0.08 µM): 0.784
- relative viability ([10]; first compound 0.253 µM): 0.588
- relative viability ([10]; first compound 0.8 µM): 0.673
- relative viability ([10]; first compound 2.53 µM): 0.667
- relative viability ([11]; first compound 0.08 µM): 0.635
- relative viability ([11]; first compound 0.253 µM): 0.625
- relative viability ([11]; first compound 0.8 µM): 0.691
- relative viability ([11]; first compound 2.53 µM): 0.789
- relative viability ([12]; first compound 0.08 µM): 0.741
- relative viability ([12]; first compound 0.253 µM): 0.736
- relative viability ([12]; first compound 0.8 µM): 0.789
- relative viability ([12]; first compound 2.53 µM): 0.716
- relative viability ([13]; first compound 0.08 µM): 0.835
- relative viability ([13]; first compound 0.253 µM): 0.587
- relative viability ([13]; first compound 0.8 µM): 0.733
- relative viability ([13]; first compound 2.53 µM): 0.564
- relative viability ([14]; first compound 0.08 µM): 0.86
- relative viability ([14]; first compound 0.253 µM): 0.614
- relative viability ([14]; first compound 0.8 µM): 0.739
- relative viability ([14]; first compound 2.53 µM): 0.543
- relative viability ([15]; first compound 0.08 µM): 0.639
- relative viability ([15]; first compound 0.253 µM): 0.589
- relative viability ([15]; first compound 0.8 µM): 0.775
- relative viability ([15]; first compound 2.53 µM): 0.597
- relative viability ([16]; first compound 0.08 µM): 0.791
- relative viability ([16]; first compound 0.253 µM): 0.705
- relative viability ([16]; first compound 0.8 µM): 0.768
- relative viability ([16]; first compound 2.53 µM): 0.533
- relative viability ([17]; first compound 0.08 µM): 0.639
- relative viability ([17]; first compound 0.253 µM): 0.922
- relative viability ([17]; first compound 0.8 µM): 0.913
- relative viability ([17]; first compound 2.53 µM): 0.925
- relative viability ([18]; first compound 0.08 µM): 1.03
- relative viability ([18]; first compound 0.253 µM): 0.401
- relative viability ([18]; first compound 0.8 µM): 0.904
- relative viability ([18]; first compound 2.53 µM): 0.997
- relative viability ([19]; first compound 0.08 µM): 1.1
- relative viability ([19]; first compound 0.253 µM): 0.805
- relative viability ([19]; first compound 0.8 µM): 0.826
- relative viability ([19]; first compound 2.53 µM): 0.622
- relative viability ([20]; first compound 0.08 µM): 0.943
- relative viability ([20]; first compound 0.253 µM): 0.46
- relative viability ([20]; first compound 0.8 µM): 0.649
- relative viability ([20]; first compound 2.53 µM): 0.433
- relative viability ([21]; first compound 0.08 µM): 0.722
- relative viability ([21]; first compound 0.8 µM): 0.747
- relative viability ([21]; first compound 2.53 µM): 0.717
- relative viability ([22]; first compound 0.08 µM): 0.581
- relative viability ([22]; first compound 0.253 µM): 0.545
- relative viability ([22]; first compound 0.8 µM): 0.496
- relative viability ([22]; first compound 2.53 µM): 0.207
- relative viability ([23]; first compound 0.08 µM): 0.872
- relative viability ([23]; first compound 0.253 µM): 0.755
- relative viability ([23]; first compound 0.8 µM): 0.892
- relative viability ([23]; first compound 2.53 µM): 0.87
